According to patent US7816321B2, “Thymosin β4 derivatives and use thereof” (Beijing Northland Biotech. Co., Ltd., priority 2005, dated 2010):
Values joined by “and” are separate entries in the source; they are usually repeats but may differ in a detail not shown here. Identical values can stand only once.

Columns and labels:
Assay type in all cases: in vivo
[1] = tested on: rat left anterior descending branch coronary artery reperfusion models (acute myocardial infarction); assay: Rat heart ischemia model: thickness of anterior left ventricular wall by ultrasonic cardiogram; details: for thickness of anterior left ventricular wall: 10 μg/rat/day intraperitoneal injection
Procedure: (§1) Rats were administrated with xylazine 5 mg/kg by intramuscular injection; anesthetized with ketamine 50 mg/kg, and rat anterior chest wall was disinfected with iodine tincture and alcohol; after completely dry, a sterile operation towel was put on, the operative site was exposed, and the operation was conducted under complete aseptic condition. The skin of rat anterior chest wall was incised, and the 3rd to the 6th ribs were cut to expose thoracic cavity, the lung was pushed aside, the heart vesicle was opened to expose the heart. Blood vessel from the origin of left anterior descending branch coronary artery to 3 mm was ligated with 6-0 polypropylene ligature wire and NELATION, and the reperfusion was conducted 1 hour later. After non-hemorrhage was confirmed, the excised ribs were sutured with sternum, and then skin was sutured. After operation, the rats were administrated with 3 mg/kg/day gentamicin for 3 days by intramuscular injection for prevention of infection.
3. Comparison of Degree of Heart Ventricle Fibrosis by Using Histological Pictures

[2] = tested on: rat epidermis lesion models; assay: Rat epidermis lesion model: wound healing observation after topical administration by nebulizer
Procedure: (§2) Rats were administrated with xylazine 5 mg/kg by intramuscular injection; anesthetized with ketamine 50 mg/kg, and rat posterior skin was disinfected with iodine tincture and alcohol; after completely dry, a sterile operation towel was put on, the operative site was exposed, and the operation was conducted under complete aseptic condition. The rat posterior skin was incised to form 3 cm incision.

[3] = tested on: rat cornea alkali burn models; assay: Rat cornea alkali burn model: recovery of corneal epithelium by image analysis
Text: The corneas of 30 adult rats were burned with 1N NaOH to obtain rat corneal lesion models.
After 4 days, eyeballs were exenterated, fixed with 10% formaldehyde, embedded with paraffin and continuously sectioned along pupil optic nerve plane, the obtained sections were used for collection and analysis of recovery of corneal epithelium by image analysis system.

[4] = tested on: rabbit cornea alkali burn models; assay: Rabbit cornea alkali burn model: recovery of corneal epithelium; details: 5th day; 500 μg/ml eyedrops, 4 times per day
Text: Eyeballs were exenterated separately after 1 and 5 days, fixed with 10% formaldehyde, embedded with paraffin, and continuously sectioned along pupil optic nerve plane, the obtained sections were stained and used for collection and analysis of recovery of corneal epithelium by image analysis system.

[5] = tested on: rat left anterior descending branch coronary artery reperfusion models (acute myocardial infarction); assay: Rat heart ischemia model: degree of heart ventricle fibrosis by histological pictures (Masson's trichrome); details: 56th day after administration; 10 μg/rat/day intraperitoneal injection
Procedure: as §1

[6] = tested on: rat models with left anterior descending branch coronary artery ligation and reperfusion; assay: Rat coronary artery ligation and reperfusion model: cell death and heart function (summary); details: continuous injection for one month
Procedure: 60 adult rats were subjected to coronary artery deligation to imitate the onset of heart disease and to obtain rat models with left anterior descending branch coronary artery ligation and reperfusion.
as §1

[7] = tested on: rat epidermis lesion models; assay: Rat epidermis lesion model: wound length by computer image analysis (smearing on epidermis)
Procedure: 30 adult rats were cut on their epidermis to obtain rat epidermis lesion model.
as §2

[8] = 100 μg/ml, topical by nebulizer, 4 times per day

“Tβ4: Native thymosin β4, polypeptide with 43 amino acids as shown in SEQ ID NO:1; positive control (SDKPDMAEIEKFDKSKLKKTETQEKNPLPSKETIEQEKQAGES; listed as Homo sapiens)” was tested, and the “thickness of anterior left ventricular wall, basal value” ([1]; 0th day, before administration, rat heart ischemia model) was 0.2378±0.018, the “thickness of anterior left ventricular wall” value ([1]; 14th day after administration) was 0.1919±0.012 and 0.1215±0.013 and the “thickness of anterior left ventricular wall” value ([1]; 28th day after administration) was 0.1233±0.0071. For the same substance, the “thickness of anterior left ventricular wall” value ([1]; 56th day after administration) was 0.1232±0.0057, the wound healing time [2, 8] was 5.8 ± 0.91 days and the “wound inflammatory reaction (severity)” value [2, 8] was “relatively slight inflammatory reactions”. The “wound inflammatory reaction, time persisted” value [2, 8] was 1 to 2 days, the scar appearance ([2]; two weeks after administration, 100 μg/ml by nebulizer) was “relatively fine linear scars with relatively smooth surface” and the scar size ([2]; two weeks after administration, 100 μg/ml by nebulizer, 4 times per day) was 1.9±0.23 cm. For the same substance, the “recovery of corneal epithelium (image analysis), basal value” ([3]; 0th day, before administration, 1N caustic soda burn) was 4.76±0.18, the “recovery of corneal epithelium (image analysis)” value ([3]; 4th day after administration, eyedrops 30 μl/rat, 4 times per day) was 7.03±0.13 and the “recovery of injured corneas” value ([3]; dropped in eyes for 4 days, corneas burned with 1N NaOH) was “recovered completely”. For the same substance, the “layers of epithelial cells appeared” value [4] was 1-2 layers, the “recovery condition of corneal epithelium” value [4] was “all injured corneal epithelial cells were recovered and became normal” and the “ratio of fibrosis part of myocardium based on total myocardium of left ventricle” value [5] was 23.15±2.9% and 22.91±2.3%. The “cell death in the injured rat heart” value [6] was “Limited cells died”, the heart functions ([6]; several weeks after the onset of heart disease) was “heart functions were improved” and the “wound length, basal value” ([7]; 0th day, before administration, 3 cm incision of posterior skin) was 3.07±0.18. The wound length ([7]; 5th day, smeared on epidermis 4 times per day, 5 μg/day) was 1.62±0.13 and the “length of wounds smaller than the blank control” value ([7]; smeared for 5 days, 30 adult rats) was 50%.
